The text below walks through data of BindingDB's records for doi:10.1021/jm0009641 (University of Bristol, 2000).

The nature of assay [1]: Displacement of radioligand [3H]- DPDPE on Opioid receptor delta 1 in monkey brain membranes.
Assay [2] in a line: Displacement of radioligand [3H]- DPDPE on Opioid receptor delta 1 in monkey brain membranes range; Value ranges from (34.0-43.2).
A short description of assay [3]: Displacement of radioligand [3H]- DAMGO on Opioid receptor mu 1 in monkey brain membranes range; Value ranges from (0.32-0.91).
The nature of assay [4]: Displacement of radioligand [3H]- U-69,593 on Opioid receptor kappa 1 in monkey brain membranes range; Value ranges from (9.7-14.2).

As a reminder, the Ki is the equilibrium dissociation constant of an inhibitor or competing ligand from its target. On to `O=C(/C=C/c1ccc(Cl)cc1)N[C@@]12CCC(=O)[C@@H]3Oc4c(O)ccc5c4[C@@]31CCN(CC1CC1)[C@@H]2C5` [1N-[4-cyclopropylmethyl-10-hydroxy-14-oxo-(17S)-12-oxa-4-azapentacyclo[9.6.1.01,13.05,17.07,18]octadeca-7,9,11(18)-trien-17-yl]-3-(4-chlorophenyl)-(E)-2-propenamide(Clocinnamox (C-CAM))], for which the Ki in assay [1] turned out to be 1.6 nM.

In assay [1], `COc1ccc2c3c1O[C@H]1C(=O)CC[C@@]4(NC(=O)/C=C/c5ccc(Cl)cc5)[C@@H](C2)N(CC2CC2)CC[C@]314` [1N-[4-cyclopropylmethyl-10-methoxy-14-oxo-(13R)-12-oxa-4-azapentacyclo[9.6.1.01,13.05,17.07,18]octadeca-7,9,11(18)-trien-17-yl]-3-(4-chlorophenyl)-(E)-2-propenamide] registered a Ki of 4.5 nM.

As to `O=C(/C=C/c1ccc(Cl)cc1)NC12CCC(=O)C3Oc4cccc5c4[C@@]31CCN(CC1CC1)C2C5` (stereo partly drawn) [1N-[4-cyclopropylmethyl-14-oxo-(13R)-12-oxa-4-azapentacyclo[9.6.1.01,13.05,17.07,18]octadeca-7,9,11(18)-trien-17-yl]-3-(4-chlorophenyl)-(E)-2-propenamide], the Ki turned out to be 37 nM in assay [2], 0.54 nM in assay [3] and 12 nM in assay [4].
